This note sets out measurements from patent US20250320252A1 (The Scripps Research Institute, priority 2021, published 2025).

For one experiment, the target named is T1, human GLP-1R (Homo sapiens, UniProt P43220).
T1 construct: expressed in transfected cells
The experiment can be described thus: In vitro receptor activation reporter assay (CRE-Luc), HEK293-GLP-1R-CRE. In kind it is cell-based.

For the next experiment, the target named is T2, human GIPR (Homo sapiens, UniProt P48546).
T2 construct: expressed in transfected cells
T2 sequence (P48546 22-466): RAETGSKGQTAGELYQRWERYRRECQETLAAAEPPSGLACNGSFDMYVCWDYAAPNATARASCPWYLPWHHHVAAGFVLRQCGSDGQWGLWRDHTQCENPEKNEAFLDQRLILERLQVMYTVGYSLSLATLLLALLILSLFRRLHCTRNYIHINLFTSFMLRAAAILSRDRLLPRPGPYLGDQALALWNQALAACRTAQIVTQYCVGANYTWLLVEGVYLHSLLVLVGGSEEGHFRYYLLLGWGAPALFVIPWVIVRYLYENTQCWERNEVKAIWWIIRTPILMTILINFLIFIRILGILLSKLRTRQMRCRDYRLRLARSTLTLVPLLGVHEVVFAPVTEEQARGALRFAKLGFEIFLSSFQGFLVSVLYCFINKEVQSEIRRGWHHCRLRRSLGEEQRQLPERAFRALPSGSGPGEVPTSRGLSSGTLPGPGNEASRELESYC
Put plainly: In vitro receptor activation reporter assay (CRE-Luc), HEK293-GIPR-CRE. As to conditions: read-out: EC50 [nM] GIPR. In kind it is cell-based.

Where [1] appears, read: Table 8, read-out: EC50 [nM] GLP1R.

Where two headings read alike, the source gives them in different places. Numbered stars: 1 amine (or outer) side, 2 acyl side, 3 side chain; on linkers, the order of the positions; unused ones are H or OH. Bridge positions count the residues as written; N and C are the ends. Square brackets hold non-standard residues; d marks the D form. Peptide text beside a SMILES is read from it. X2 = O=C(O)CCCCCCCCCCCCCCCCCCC(=O)N[C@@H](CCCCNC(=O)CCOCCOCCNC(=O)CCOCCOCCNC(=O)CCC(=O)N(CCNC(=O)C[*:1])CCNC(=O)C[*:2])C(=O)O; X1 = O=C(O)CCCCCCCCCCCCCCCCC(=O)N[C@@H](CCCCNC(=O)CCOCCOCCNC(=O)CCOCCOCCNC(=O)CCC(=O)N(CCNC(=O)C[*:1])CCNC(=O)C[*:2])C(=O)O; Aib = CC(C)(N)C(=O)O

T1 sequence (P43220 24-463): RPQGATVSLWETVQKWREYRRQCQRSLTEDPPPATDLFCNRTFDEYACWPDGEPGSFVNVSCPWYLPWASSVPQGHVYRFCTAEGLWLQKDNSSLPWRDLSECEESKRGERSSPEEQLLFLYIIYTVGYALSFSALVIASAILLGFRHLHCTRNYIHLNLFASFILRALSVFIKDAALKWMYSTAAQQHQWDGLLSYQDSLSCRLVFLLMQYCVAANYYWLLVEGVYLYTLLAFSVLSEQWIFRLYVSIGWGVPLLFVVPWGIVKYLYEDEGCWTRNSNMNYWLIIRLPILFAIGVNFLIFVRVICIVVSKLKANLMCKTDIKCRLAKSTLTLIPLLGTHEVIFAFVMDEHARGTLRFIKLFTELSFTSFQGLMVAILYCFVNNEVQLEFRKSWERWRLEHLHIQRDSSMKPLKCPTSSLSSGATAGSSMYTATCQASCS
From the text for human GIPR: HEK293 cells were infected with lentivirus encoding firefly luciferase gene under the control of cAMP responsive element (CRE) promoter (Qiagen, The Netherlands) and then were selected using 1 g mL^−1 puromycin (Life Technologies, Carlsbad) for 1 week. The surviving cells (referred to as CRE-HEK293) were expanded and then transfected with a G418 selective mammalian expression plasmid encoding human GLP-1R or GIPR. In brief, GLP-1R or GIPR plasmid was transfected into CRE-HEK293 cells using Lipofectamine 2000 and selected with 400 g mL^−1 Geneticin (Life Technologies, Carlsbad, CA). Single colony stable cell line overexpressing CRE-luciferase and GLP-1R or GIPR (HEK293-GLP-1R-CRE or HEK293-GIPR-CRE) was then established for in vitro activity assay.
(§1) The EC50 of each peptide was determined using GraphPad Prism 6 software (GraphPad, San Diego, CA).
Method for human GLP-1R: as §1
HEK293 cells were infected with lentivirus encoding firefly luciferase gene under the control of cAMP responsive element (CRE) promoter (Qiagen, The Netherlands) and then were selected using 1 g/mL puromycin (Life Technologies, Carlsbad) for 1 week. The surviving cells (referred to as CRE-HEK293) were expanded and then transfected with a G418 selective mammalian expression plasmid encoding human GLP-1R. In brief, GLP-1R plasmid was transfected into CRE-HEK293 cells using Lipofectamine 2000 and selected with 400 g/mL Geneticin (Life Technologies, Carlsbad, CA). Single colony stable cell line overexpressing CRE-luciferase and GLP1R was then established for in vitro activity assay.

Turning to `CC[C@H](C)[C@H](NC(=O)[C@H](CC(C)C)NC(=O)[C@H](Cc1c[nH]c2ccccc12)NC(=O)[C@H](CC(N)=O)NC(=O)[C@@H](NC(=O)[C@H](Cc1ccccc1)NC(=O)[C@@H]1CSCC(=O)NCCN(C(=O)CCC(=O)NCCOCCOCCC(=O)NCCOCCOCCC(=O)NCCCC[C@H](NC(=O)CCCCCCCCCCCCCCCCC(=O)O)C(=O)O)CCNC(=O)CSC[C@H](NC(=O)[C@H](Cc2ccc(O)cc2)NC(=O)[C@@H](NC(=O)[C@H](CO)NC(=O)[C@H](Cc2ccc(O)cc2)NC(=O)[C@H](CC(=O)O)NC(=O)[C@H](CO)NC(=O)[C@@H](NC(=O)[C@H](Cc2ccccc2)NC(=O)[C@@H](NC(=O)CNC(=O)[C@H](CCC(=O)O)NC(=O)C(C)(C)NC(=O)[C@@H](N)Cc2ccc(O)cc2)[C@@H](C)O)[C@@H](C)O)[C@@H](C)CC)C(=O)N[C@@H](CC(=O)O)C(=O)N[C@@H](CCCCN)C(=O)N[C@@H](CCC(N)=O)C(=O)N[C@@H](C)C(=O)N[C@@H](C)C(=O)NC(C)(C)C(=O)N1)C(C)C)C(=O)N[C@@H](C)C(=O)NCC(=O)NCC(=O)N1CCC[C@H]1C(=O)N[C@@H](CO)C(=O)N[C@@H](CO)C(=O)NCC(=O)N[C@@H](C)C(=O)N1CCC[C@H]1C(=O)N1CCC[C@H]1C(=O)N1CCC[C@H]1C(=O)N[C@@H](CO)C(N)=O` [27I, C(14-21) - L5A, YAibEGT-FTSDY-SIYXD-KQAAAib-XFVNW-LIAGG-PSSGA-PPPS-NH2 (where each X is C)], the EC50 on human GLP-1R (setting [1]) came to 0.04 nM; at human GIPR (Table 8), 0.03 nM.

With `CC[C@H](C)[C@H](NC(=O)[C@H](CC(C)C)NC(=O)[C@H](Cc1c[nH]c2ccccc12)NC(=O)[C@@H]1CSCC(=O)NCCN(C(=O)CCC(=O)NCCOCCOCCC(=O)NCCOCCOCCC(=O)NCCCC[C@H](NC(=O)CCCCCCCCCCCCCCCCCCC(=O)O)C(=O)O)CCNC(=O)CSC[C@H](NC(=O)[C@H](CCCCN)NC(=O)[C@H](CC(=O)O)NC(=O)[C@H](CC(C)C)NC(=O)[C@H](Cc2ccc(O)cc2)NC(=O)[C@@H](NC(=O)[C@H](CO)NC(=O)[C@H](Cc2ccc(O)cc2)NC(=O)[C@H](CC(=O)O)NC(=O)[C@H](CO)NC(=O)[C@@H](NC(=O)[C@H](Cc2ccc(O)cc2)NC(=O)[C@@H](NC(=O)CNC(=O)[C@H](CCC(=O)O)NC(=O)C(C)(C)NC(=O)[C@@H](N)Cc2ccc(O)cc2)[C@@H](C)O)[C@@H](C)O)[C@@H](C)CC)C(=O)N[C@@H](C)C(=O)N[C@@H](C)C(=O)NC(C)(C)C(=O)N[C@@H](CCC(=O)O)C(=O)N[C@@H](Cc2ccccc2)C(=O)N[C@@H](C(C)C)C(=O)N1)C(=O)N[C@@H](C)C(=O)NCC(=O)NCC(=O)N1CCC[C@H]1C(=O)N[C@@H](CO)C(=O)N[C@@H](CO)C(=O)NCC(=O)N[C@@H](C)C(=O)N1CCC[C@H]1C(=O)N1CCC[C@H]1C(=O)N1CCC[C@H]1C(=O)N[C@@H](CO)C(N)=O` [6Y, 271, C(17-24) - C20L5A, YAibEGT-YTSDY-SIYLD-KXAAAib-EFVXW-LIAGG-PSSGA-PPPS-NH2 (where each X is C)] (H-Y[Aib]EGTYTSDYSIYLDKCAA[Aib]EFVCWLIAGGPSSGAPPPS-NH2; linker 17-24 via X2), the EC50 on human GLP-1R (unnumbered table (Table 10), average of runs, read-out: GLP1R (nM) [EC50] average) came to 0.06 nM; on human GLP-1R (unnumbered table (Table 10), run 02/19, read-out: GLP1R (nM) [EC50] 02/19), 0.05 nM; at human GLP-1R (unnumbered table (Table 10), run 3/25, read-out: GLP1R (nM) [EC50] 3/25), 0.07 nM; on human GLP-1R (unnumbered table (Table 10), run 03/26, read-out: GLP1R (nM) [EC50] 03/26), 0.06 nM.

Turning to `CC[C@H](C)[C@H](NC(=O)[C@H](CC(C)C)NC(=O)[C@H](Cc1c[nH]c2ccccc12)NC(=O)[C@H](CC(N)=O)NC(=O)[C@@H](NC(=O)[C@H](Cc1ccccc1)NC(=O)[C@@H]1CSCC(=O)NCCN(C(=O)CCC(=O)NCCOCCOCCC(=O)NCCOCCOCCC(=O)NCCCC[C@H](NC(=O)CCCCCCCCCCCCCCCCC(=O)O)C(=O)O)CCNC(=O)CSC[C@H](NC(=O)[C@H](Cc2ccc(O)cc2)NC(=O)[C@@H](NC(=O)[C@H](CO)NC(=O)[C@@H](NC(=O)[C@H](CC(=O)O)NC(=O)[C@H](CO)NC(=O)[C@@H](NC(=O)[C@H](Cc2ccccc2)NC(=O)[C@@H](NC(=O)CNC(=O)[C@H](CCC(=O)O)NC(=O)C(C)(C)NC(=O)[C@@H](N)Cc2ccc(O)cc2)[C@@H](C)O)[C@@H](C)CC)C(C)C)[C@@H](C)CC)C(=O)N[C@@H](CC(=O)O)C(=O)N[C@@H](CCCCN)C(=O)N[C@@H](CCC(N)=O)C(=O)N[C@@H](C)C(=O)N[C@@H](C)C(=O)NC(C)(C)C(=O)N1)C(C)C)C(=O)N[C@@H](C)C(=O)NCC(=O)NCC(=O)N1CCC[C@H]1C(=O)N[C@@H](CO)C(=O)N[C@@H](CO)C(=O)NCC(=O)N[C@@H](C)C(=O)N1CCC[C@H]1C(=O)N1CCC[C@H]1C(=O)N1CCC[C@H]1C(=O)N[C@@H](CO)C(N)=O` [7I, 10V, 27I, C(14-21) - L5A, YAibEGT-FISDV-SIYXD-KQAAAib-XFVNW-LIAGG-PSSGA-PPPS-NH2 (where each X is C)] (H-Y[Aib]EGTFISDVSIYCDKQAA[Aib]CFVNWLIAGGPSSGAPPPS-NH2; linker 14-21 via X1), the EC50 on human GLP-1R (setting [1]) is 83.9 nM; on human GIPR (Table 8), 12.5 nM.

For the compound `CC[C@H](C)[C@H](NC(=O)[C@H](CO)NC(=O)[C@H](Cc1ccc(O)cc1)NC(=O)[C@H](CC(=O)O)NC(=O)[C@H](CO)NC(=O)[C@@H](NC(=O)[C@H](Cc1ccccc1)NC(=O)[C@@H](NC(=O)CNC(=O)[C@H](CCC(=O)O)NC(=O)C(C)(C)NC(=O)[C@@H](N)Cc1ccc(O)cc1)[C@@H](C)O)[C@@H](C)O)C(=O)N[C@@H](Cc1ccc(O)cc1)C(=O)N[C@H]1CSCC(=O)NCCN(C(=O)CCC(=O)NCCOCCOCCC(=O)NCCOCCOCCC(=O)NCCCC[C@H](NC(=O)CCCCCCCCCCCCCCCCC(=O)O)C(=O)O)CCNC(=O)CSC[C@@H](C(=O)N[C@@H](Cc2ccccc2)C(=O)N[C@H](C(=O)N[C@@H](CC(N)=O)C(=O)N[C@@H](Cc2c[nH]c3ccccc23)C(=O)N[C@@H](CC(C)C)C(=O)N[C@@H](CC(C)C)C(=O)N[C@@H](C)C(=O)NCC(=O)NCC(=O)N2CCC[C@H]2C(=O)N[C@@H](CO)C(=O)N[C@@H](CO)C(=O)NCC(=O)N[C@@H](C)C(=O)N2CCC[C@H]2C(=O)N2CCC[C@H]2C(=O)N2CCC[C@H]2C(=O)N[C@@H](CO)C(N)=O)C(C)C)NC(=O)C(C)(C)NC(=O)[C@H](C)NC(=O)[C@H](C)NC(=O)[C@H](CCC(N)=O)NC(=O)[C@H](CCCCN)NC(=O)[C@H](CC(=O)O)NC1=O` [C(14-21) - L5A, YAibEGT-FTSDY-SIYXD-KQAAAib-XFVNW-LLAGG-PSSGA-PPPS-NH2 (where each X is C)], the EC50 on human GIPR (Table 8) and on human GIPR (Table 9) was 0.03 nM each time.

As to `CC[C@H](C)[C@H](NC(=O)[C@H](CC(C)C)NC(=O)[C@H](Cc1c[nH]c2ccccc12)NC(=O)[C@@H]1CSCC(=O)NCCN(C(=O)CCC(=O)NCCOCCOCCC(=O)NCCOCCOCCC(=O)NCCCC[C@H](NC(=O)CCCCCCCCCCCCCCCCCCC(=O)O)C(=O)O)CCNC(=O)CSC[C@H](NC(=O)[C@H](CCCCN)NC(=O)[C@H](CC(=O)O)NC(=O)[C@H](CC(C)C)NC(=O)[C@H](Cc2ccc(O)cc2)NC(=O)[C@@H](NC(=O)[C@H](CO)NC(=O)[C@H](Cc2ccc(O)cc2)NC(=O)[C@H](CC(=O)O)NC(=O)[C@H](CO)NC(=O)[C@@H](NC(=O)[C@H](Cc2ccccc2)NC(=O)[C@@H](NC(=O)CNC(=O)[C@H](CCC(=O)O)NC(=O)C(C)(C)NC(=O)[C@@H](N)Cc2ccc(O)cc2)[C@@H](C)O)[C@@H](C)O)[C@@H](C)CC)C(=O)N[C@@H](C)C(=O)N[C@@H](CCC(N)=O)C(=O)NC(C)(C)C(=O)N[C@@H](C)C(=O)N[C@@H](Cc2ccccc2)C(=O)N[C@@H](C(C)C)C(=O)N1)C(=O)N[C@@H](C)C(=O)N[C@@H](CCC(N)=O)C(=O)NCC(=O)N1CCC[C@H]1C(=O)N[C@@H](CO)C(=O)N[C@@H](CO)C(=O)NCC(=O)N[C@@H](C)C(=O)N1CCC[C@H]1C(=O)N1CCC[C@H]1C(=O)N1CCC[C@H]1C(=O)N[C@@H](CO)C(N)=O` [19Q, 21A, 27I, 29Q, C(17-24) - C20L5A, YAibEGT-FTSDY-SIYLD-KXAQAib-AFVXW-LIAQG-PSSGA-PPPS-NH2 (where each X is C)], at human GIPR (Table 9), the EC50 worked out at 0.02 nM.

For `CC[C@H](C)[C@H](NC(=O)[C@H](CO)NC(=O)[C@H](Cc1ccc(O)cc1)NC(=O)[C@H](CC(=O)O)NC(=O)[C@H](CO)NC(=O)[C@@H](NC(=O)[C@H](Cc1ccccc1)NC(=O)[C@@H](NC(=O)CNC(=O)[C@H](CCC(=O)O)NC(=O)C(C)(C)NC(=O)[C@@H](N)Cc1ccc(O)cc1)[C@@H](C)O)[C@@H](C)O)C(=O)N[C@@H](Cc1ccc(O)cc1)C(=O)N[C@H]1CCCCNC(=O)CN(C(=O)CCNC(=O)CCOCCOCCNC(=O)CCOCCOCCNC(=O)CC[C@H](NC(=O)CCCCCCCCCCCCCCCCC(=O)O)C(=O)O)CC(=O)NCCCC[C@@H](C(=O)N[C@@H](Cc2ccccc2)C(=O)N[C@H](C(=O)N[C@@H](CC(N)=O)C(=O)N[C@@H](Cc2c[nH]c3ccccc23)C(=O)N[C@@H](CC(C)C)C(=O)N[C@@H](CC(C)C)C(=O)N[C@@H](C)C(=O)NCC(=O)NCC(=O)N2CCC[C@H]2C(=O)N[C@@H](CO)C(=O)N[C@@H](CO)C(=O)NCC(=O)N[C@@H](C)C(=O)N2CCC[C@H]2C(=O)N2CCC[C@H]2C(=O)N2CCC[C@H]2C(=O)N[C@@H](CO)C(N)=O)C(C)C)NC(=O)C(C)(C)NC(=O)[C@H](C)NC(=O)[C@H](C)NC(=O)[C@H](CCC(N)=O)NC(=O)[C@H](CCCCN)NC(=O)[C@H](CC(=O)O)NC1=O` [mCLZ715, YAibEGT-FTSDY-SIYXD-KQAAAib-XFVNW-LLAGG-PSSGA-PPPS-NH2 (where each X is K)], the EC50 on human GLP-1R (Table 7, read-out: EC50 [nM] GLP1R) was 0.02 nM.
